In series [1] the test system is phosphorylation of Shc, Src, Jak-1/2, Erk1/2 or Akt. To be noted: cited from earlier work.
Series [2] deals with non-transformed cells (NIH 3T3 cells, STAT3 null mouse embryo fibroblasts, or mouse thymus stromal cells). To be noted: cited from earlier work.
Series [3] has as its system xenograft models of lung or breast cancer. As to conditions: murine xenograft models of lung or breast cancer; cited from earlier work.
A further series deals with MV-4-11. Put plainly: Cell Titer-Blue cell viability assay, MV-4-11 (AML). Format: cell-based. As to conditions: Homo sapiens, MV4-11; AML cell line MV-4-11, 72 hrs exposure. The procedure: (§1) Anti-cancer efficacy of exemplary compounds of this application was assessed in vitro in different cancer cell lines. Cell viability was examined following treatment at various concentration of inhibitor (0.097656-50 μM) using a cell Titer-Blue cell viability assay. 1×10^4 cells/well were plated in 96-well assay plates in culture medium. All cells were grown in DMEM, IMDM and RPMI-1640 supplemented with 10% FBS. After 24 hrs, test compounds and vehicle controls were added to appropriate wells so the final volume was 100 μl in each well. The cells were cultured for the desired test exposure period (72 hrs) at 37° C. and 5% CO2. The assay plates were removed from 37° C. incubator and 20 μl/well of CellTiter-Blue® Reagent was added. The plates were incubated using standard cell culture conditions for 1-4 hours and the plates were shaken for 10 seconds and fluorescence recorded at 560/590 nm.
(§2) Compound I and II were tested for their efficacy against selected chronic myelogenous leukemia, acute myeloid leukemia and healthy human lung cell lines using the protocol stated above.

The test system of a further series is MOLM-13. As to the kind of experiment: Cell Titer-Blue cell viability assay, MOLM-13 (AML). The series is classed as cell-based. To be noted: Homo sapiens; AML cell line MOLM-13, 72 hrs exposure. How it is done: as §1, §2
In general terms: Resazurin is reduced to fluorescent resorufin, in cell work by metabolically active cells.

Series [4] is described as follows: Bioavailability / PK study in CD-1 mice (IP injection). To be noted: plasma, 20 mg/kg IP. The series is classed as in vivo. The procedure: The study groups for PK for compound I, II and comparative experiments with AC-3-19 and JPX-0371 experiments are shown in Table 2.
All animals had free access to food and water. Dose formulation processing during dosing: The formulations will be kept stirred at room temperature for at least 15 min before dosing and during the dosing. Pharmacokinetics (PK) Schedule shown below in Table 3.
Approximately 0.03 mL blood was collected at each time point. Blood of each sample was transferred into plastic micro centrifuge tubes containing heparin-Na as anticoagulant. Collection tubes with blood samples and anticoagulant were inverted several times for proper mixing of the tube contents and then placed on wet ice prior to centrifugation for plasma. The blood samples were centrifuged at 4000 g for 5 min at 4° C. to obtain plasma. The samples were stored in a freezer at −75±15° C. prior to analysis. The study used CD-1 mice (male), n=3, at age approx. 6-8 weeks (20-30 g).
Concentrations of compounds in the plasma samples were analyzed using a LC-MS/MS method. WinNonlin (Phoenix™, version 6.1). Other similar software could have also been used for pharmacokinetic calculations. Pharmacokinetic parameters were calculated, whenever possible from the plasma concentration versus time data: IP parameters including T1/2, Cmax, Tmax, AUClast, AUCinf, MRT are calculated.

The nature of series [5]: Intrinsic clearance in mouse hepatocyte. Format: in vitro ADME. To be noted: mouse, mouse hepatocytes, time points 0-120 minutes, read-out: In vitro T1/2 in mouse hepatocytes. How it is done: (§3) A stock of 100 μM test compound was prepared by diluting the 10 mM test compound in DMSO with a solution of 50% acetonitrile and 50% water. In a 96-well non-coated plate, 198 μL of hepatocytes was pipetted, and the plate was placed in the incubator on an orbital shaker to allow the hepatocytes to warm for 10 minutes. To this solution was added 2 μL of the 100 μM test compound to start the reaction, and the plate was placed on an orbital shaker. At time points of 0, 15, 30, 60, 90 and 120 minutes, the aliquots were mixed with a solution of acetonitrile and internal standard (100 nM alprazolam, 200 nM labetalol, and 2 μM ketoprofen) to terminate the reaction. The reaction solution was then vortexed for 10 minutes and centrifuged at 4,000 rpm for 30 minutes at 4° C. […] of the supernatant was transferred to one new 96-well plate, centrifuged at 4,000 rpm for 30 minutes at 4° C., and 100 μL of the supernatant was transferred to a new 96-well plate ensuring the pellet was not disturbed. 100 μL of ultrapure water was added to all samples for analysis by LC-MS/MS.
(§4) The in vitro half-life (T1/2) was determined by the linear regression of the natural logarithm of the remaining percentage of the parent drug vs. incubation time curve. The slope value (k) of the curve was then substituted into the following equation to determine the in vitro half-life
(§5) The in vitro intrinsic clearance (in vitro CLint, in μL/min/10^6 cells) was determined by the following equation.
(§6) Where volume of incubation=0.2 mL and number of hepatocytes per well=0.1×10^6 cells.
(§7) Bioanalytical method: Column—Phenomenex Synergi 4μ Hydro-PR 80A (2.0×30 mm).
(§8) Mobile phase—0.1% formic acid in water (solvent A) and 0.1% formic acid in acetonitrile (solvent B). Column temperature—room temperature. Injection volume—10 μL. MS analysis—API 4000 instrument from AB Inc (Canada) with an ESI interface.

In a further series the test system is K562. As to the kind of experiment: Cell Titer-Blue cell viability assay, K562 (CML). Format: cell-based. To be noted: Homo sapiens; CML cell line K562, 72 hrs exposure. The procedure: as §1, §2
The next series has as its system NIH 3T3. As to the kind of experiment: Cell Titer-Blue cell viability assay, NIH 3T3. The series is classed as cell-based. As to conditions: Mus musculus, NIH3T3; NIH 3T3 cells, 72 hrs exposure. How it is done:
as §1

A further series has as its system HaCat. Put plainly: Cell Titer-Blue cell viability assay, HaCat (healthy cell line). The series is classed as cell-based. As to conditions: Homo sapiens, 72 hrs exposure. How it is done:
as §1

Another series concerns MRC-9. As to the kind of experiment: Cell Titer-Blue cell viability assay, MRC-9 (healthy cell line). As to conditions: Homo sapiens, MRC9; healthy cell line MRC-9, 72 hrs exposure. Format: cell-based. The procedure: as §1, §2
The next series has as its system Mouse Hepatocyte. Put plainly: Intrinsic clearance in mouse hepatocyte. To be noted: time points 0-120 minutes. The series is classed as in vitro ADME. The procedure:
as §3, §4, §5, §6, §7, §8

Where [6] appears, read: male, CD-1, mouse, ip, 20 mg/kg, read-out: t1/2 (converted).
Where [7] appears, read: male, CD-1, mouse, ip, 20 mg/kg, individual animal.
Setting [8] is: male, CD-1, mouse, ip, 20 mg/kg, mean N=3.

The source of these data is patent US20220089531A1, “NEW […] ACID DERIVATIVES, PHARMACEUTICALLY ACCEPTABLE SALT THEREOF, COMPOSITION THEREOF AND METHOD OF USE THEREOF” (THE GOVERNING COUNCIL OF THE UNIVERSITY OF TORONTO, priority 2018, published 2022).

As usually defined, the IC50 is the midpoint of a concentration-inhibition curve. Usually Cmax stands for the maximum level reached in the sampled fluid or tissue. Broadly, the MRT is a mean duration of stay, worked out from the concentration-time curve. Usually AUC(0-inf) stands for total exposure, with the tail of the curve extrapolated. Low values mean less exposure, high ones more exposure. One may read the AUC(0-t) as the area under the concentration-time curve up to a stated or last time point. A higher AUC(0-t) goes with high exposure. By Tmax is commonly meant the time at which the peak concentration occurs.

Several values for one entry are separate records, joined by “and”; a condition that tells them apart may be missing. Identical values can stand only once. Like-named read-outs stand apart in the source and are kept apart here.

With BP-1-102, in series [1], the “effect on phosphorylation of Shc, Src, Jak-1/2, Erk1/2 or Akt” value is listed as “little or no effect”. In addition, the “effect on non-transformed cells” value in [2] is recorded as “no effect”. In series [3], the “anti-tumor effect in vivo” value is listed as “dramatic regression in tumor volumes”.
As for `O=C(O)c1ccc(N(Cc2cccc(C3CCCC3)c2)C(=O)CN(Cc2c(F)c(F)c(F)c(F)c2F)S(=O)(=O)c2c(F)c(F)c(F)c(F)c2F)cc1O` [JPX-320], the IC50 was found to be 1100 nM in the series with MV-4-11 and 800 nM in the series with MOLM-13. Further, the half-life in series [4] (setting [6]) is 0.861 h.
In the series on MV-4-11, `CC(C)(C)c1cc(CN(C(=O)CN(Cc2ccc(Cl)cc2)S(=O)(=O)c2c(F)c(F)c(F)c(F)c2F)c2ccc(C(=O)O)cc2)cc(C2CC2)c1` [Compound II] gave an IC50 of 480 nM. Further, the half-life at 1 µM in [5] came out at 0.767 h.
As for `O=C(O)c1ccc(N(Cc2cccc(C3CCCC3)c2)C(=O)CN(Cc2c(F)c(F)c(F)c(F)c2F)S(=O)(=O)c2c(F)c(F)c(F)c(F)c2F)cc1` [JPX-303, 4-(N-(3-cyclopentylbenzyl)-2-((2,3,4,5,6-pentafluoro-N-((perfluorophenyl)methyl)phenyl)sulfonamido)acetamido)benzoic acid], the IC50 was determined as 2600 nM in the series on K562, 210 nM in the series on MV-4-11 and 5190 nM in the series with NIH 3T3. In addition, the half-life in series [4] (setting [6]) was 0.35 h.
Consider `O=C(O)c1ccc(N(Cc2cccc(C3CCCC3)c2)C(=O)CN(Cc2ccc(Cl)cc2)S(=O)(=O)c2c(F)c(F)c(F)c(F)c2F)cc1` [JPX-313, 4-(2-((N-(4-chlorobenzyl)-2,3,4,5,6-pentafluorophenyl)sulfonamido)-N-(3-cyclopentylbenzyl)acetamido)benzoic acid], for which the IC50 in the series with MV-4-11 came to 930 nM; in the series on MOLM-13, 1100 nM. Further, in [4] (setting [6]), the half-life was 0.31 h.
As to `O=C(O)c1ccc(N(Cc2cccc(C3CCCC3)c2)C(=O)CN(Cc2ccc(Cl)cc2)S(=O)(=O)c2c(F)c(F)c(F)c(F)c2F)cc1O` [JPX-062, 4-(2-((N-(4-chlorobenzyl)-2,3,4,5,6-pentafluorophenyl)sulfonamido)-N-(3-cyclopentylbenzyl)acetamido)-2-hydroxybenzoic acid], the IC50 in the series on MV-4-11 amounted to 7900 nM; in the series on MOLM-13 it was 6400 nM. In addition, the half-life in [4] (setting [6]) is 0.94 h.
With `CC(C)(C)c1cc(CN(C(=O)CN(Cc2ccc(Cl)cc2)S(=O)(=O)c2c(F)c(F)c(F)c(F)c2F)c2ccc(C(=O)O)c(O)c2)cc(C2CC2)c1` [Compound I], the IC50 in the series with K562 was 4100 nM; in the series with MV-4-11 it was 560 nM; in the series with MOLM-13, 1700 to 2500 nM; with HaCat, 20000 nM; with MRC-9, 30000 nM. Also, the half-life at 1 µM in series [5] turned out to be 1.67 h. Also, in the series on Mouse Hepatocyte, the “In vitro T1/2 in mouse hepatocytes” value worked out at 1.68 h. Further, the “AUC Extr” value in [4] (individual animal, 20 mg/kg) is 0.346% and 0.385% and 0.325%; in series [4] (mean N=3), 0.352%. Also, in series [4] (individual animal, 20 mg/kg), the AUCInf was 7245 ng·h/mL and 6566 ng·h/mL. Moreover, the AUClast in [4] (individual animal, 20 mg/kg) is 7217 ng·h/mL and 6545 ng·h/mL. Besides, the Cmax was 3290 ng/mL and 3480 ng/mL in [4] (individual animal, 20 mg/kg); 3010 ng/mL in series [4] (male, CD-1, mouse, ip, 20 mg/kg, individual animal, read-out: Cmax); 3260 ng/mL in series [4] (male, CD-1, mouse, ip, 20 mg/kg, mean N=3, read-out: Cmax). For the same compound, the MRT in [4] (individual animal, 20 mg/kg) was 1.99 h and 1.81 h; in series [4] (male, CD-1, mouse, ip, 20 mg/kg, individual animal, read-out: MRT), 1.87 h; in series [4] (male, CD-1, mouse, ip, 20 mg/kg, mean N=3, read-out: MRT), 1.89 h. In addition, the t1/2 in [4] (individual animal, 20 mg/kg) is 3.91 h and 3.97 h. In addition, the results for the AUC(0-inf) in [4] (setting [7]) and in [4] (setting [8]) were 5820 ng·h/mL and 6540 ng·h/mL, respectively. The AUC(0-t) was 5800 ng·h/mL in [4] (setting [7]) and 6520 ng·h/mL in series [4] (setting [8]). The half-life was 3.92 h in series [4] (male, CD-1, mouse, ip, 20 mg/kg, individual animal, read-out: t1/2 (converted)); 3.93 h in series [4] (male, CD-1, mouse, ip, 20 mg/kg, mean N=3, read-out: t1/2 (converted)); 3.9 h in [4] (male, CD-1, mouse, ip, 20 mg/kg, read-out: calculated T1/2 (FIG. 6) (converted)). The Tmax in [4] (male, mouse, mean N=3) was 0.5 h.
